Key:
[1] = Stability testing of statins dissolved in PUFA free acid solvent system at 25° C., 60% RH (Example 5); type: physicochemical
Experimental: The compositions were then mixed until full dissolution was observed, using a magnetic stir bar and sonication for 30-60 second intervals, taking care to maintain a nitrogen headspace over the solution throughout processing. […] Vials were covered with foil to protect from light and stored at 25° C., 60% RH. One vial of each of the three compositions was retrieved at each timepoint for testing. Procedures as listed in the USP Monograph for Omega-3-Acid Ethyl Ester Capsules were followed for measuring quantities of acid value, peroxide value, and absorbance for fats and fixed oils.

[2] = Solubility of statins in PUFA free acid solvent system, HPLC of supernatant (Example 4); type: physicochemical; settings: 2 mL PUFA free acid solvent; after addition of about 313 mg; before overnight standing
Experimental: For this study, ten vials were prepared such that 5 vials contained 2 mL of Lovaza oil and 5 vials contained 2 mL of PUFA free acid solvent system. About 20 mg of each statin were added to one Lovaza oil vial and to one PUFA free acid solvent system vial. Vials containing the samples were blanketed with nitrogen, then sealed. The vials were then sonicated for 1 hour or until contents appeared clear. After sonication, vials which remained clear received additional 20 mg aliquots of their respective statin and were again blanketed with nitrogen. […] The samples were centrifuged and the supernatant was assayed for the respective statin by HPLC.

[3] = Solubility of statins in various pH buffers (Example 1)
[4] = Solubility of statins in omega-3 ethyl ester solvent system, Lovaza fill (Example 3); settings: sonicated 1 hour, overnight, supernatant by HPLC

Structure (SMILES): CC(C)c1c(C(=O)Nc2ccccc2)c(-c2ccccc2)c(-c2ccc(F)cc2)n1CC[C@@H](O)C[C@@H](O)CC(=O)[O-].CC(C)c1c(C(=O)Nc2ccccc2)c(-c2ccccc2)c(-c2ccc(F)cc2)n1CC[C@@H](O)C[C@@H](O)CC(=O)[O-].[Ca+2] [Atorvastatin, Atorvastatin Calcium]
- Statin in oil, content ([1]; t = 0): 8.738 mg/g
- Statin in oil, percent of total ([1]; t = 0): 100%
- Statin in oil, content ([1]; t = 1 week): 8.275 mg/g
- Statin in oil, percent of total ([1]; t = 1 week): 100%
- Statin in oil, content ([1]; t = 2 week): 7.839 mg/g
- Statin in oil, percent of total ([1]; t = 2 week): 100%

Structure (SMILES): CC[C@H](C)C(=O)O[C@H]1C[C@H](O)C=C2C=C[C@H](C)[C@H](CC[C@@H](O)C[C@@H](O)CC(=O)O)[C@H]21 [Pravastatin Sodium]
- Appearance of vial after repeated statin additions and sonication [2]: still remained clear

Structure (SMILES): CC(C)c1nc(N(C)S(C)(=O)=O)nc(-c2ccc(F)cc2)c1/C=C/[C@@H](O)C[C@@H](O)CC(=O)[O-].CC(C)c1nc(N(C)S(C)(=O)=O)nc(-c2ccc(F)cc2)c1/C=C/[C@@H](O)C[C@@H](O)CC(=O)[O-].[Ca+2] [Rosuvastatin, Rosuvastatin Calcium]
- Statin in oil, content ([1]; t = 0): 6.481 mg/g
- Statin in oil, percent of total ([1]; t = 0): 100%
- Statin in oil, content ([1]; t = 1 week): 6.416 mg/g
- Statin in oil, percent of total ([1]; t = 1 week): 100%
- Statin in oil, content ([1]; t = 2 week): 6.505 mg/g
- Statin in oil, percent of total ([1]; t = 2 week): 100%
- Solubility ([3]; acid phthalate buffer pH 4.0, T = 1 Week): 0.002
- pH of maximal aqueous solubility ([3]; across the tested pH buffers): ~7.0
- Aqueous solubility (in words) ([3]; overall across pH buffers, rosuvastatin at time zero): significant aqueous solubility
- Initial solubility in PUFA ethyl ester solvent system, Concentration [4]: 1 µg/mL
